For orientation: IC50 means the concentration that inhibits the measured activity by half.

These results are taken from patent publication US8022206B2 (OSI Pharmaceuticals, LLC, priority 2008, dated 2011).

Molecules are shown by their SMILES. Some results are limits rather than exact numbers.

The experiment concerns the target RON (human) (Homo sapiens, UniProt Q04912). Description: RON (human) AlphaScreen kinase assay, Km of ATP. It is filed as biochemical. Particulars: AlphaScreen, Km of ATP; read-out: RON biochemical IC50. The procedure: Someone skilled in the art will appreciate that a variety of assay formats may be used to determine the activity of the compounds of this invention. For example, AlphaScreen (Amplified Luminescent Proximity Homogeneous Assay) technology was used with the kinases described below. Assay ATP concentrations for individual kinases are included in the text.
Desired compound is added in a final concentration of 1% DMSO with control being vehicle of DMSO alone. […] Enzyme is added to initiate the reaction and incubated for 30 min at RT. In subdued light, appropriate amount of PT66 donor and acceptor beads (diluted 1:260 from manufacturer's provision in a 25 mM Tris HCl (pH=7.5), 200 mM NaCl, 100 mM EDTA, 0.3% BSA buffer) are added to the wells. The plates, incubated for 1 h, are read on an AlphaQuest plate reader.
(In general: Bead proximity is the source of the signal in Alpha formats.)

RON (human), sequence (Q04912 25-1400): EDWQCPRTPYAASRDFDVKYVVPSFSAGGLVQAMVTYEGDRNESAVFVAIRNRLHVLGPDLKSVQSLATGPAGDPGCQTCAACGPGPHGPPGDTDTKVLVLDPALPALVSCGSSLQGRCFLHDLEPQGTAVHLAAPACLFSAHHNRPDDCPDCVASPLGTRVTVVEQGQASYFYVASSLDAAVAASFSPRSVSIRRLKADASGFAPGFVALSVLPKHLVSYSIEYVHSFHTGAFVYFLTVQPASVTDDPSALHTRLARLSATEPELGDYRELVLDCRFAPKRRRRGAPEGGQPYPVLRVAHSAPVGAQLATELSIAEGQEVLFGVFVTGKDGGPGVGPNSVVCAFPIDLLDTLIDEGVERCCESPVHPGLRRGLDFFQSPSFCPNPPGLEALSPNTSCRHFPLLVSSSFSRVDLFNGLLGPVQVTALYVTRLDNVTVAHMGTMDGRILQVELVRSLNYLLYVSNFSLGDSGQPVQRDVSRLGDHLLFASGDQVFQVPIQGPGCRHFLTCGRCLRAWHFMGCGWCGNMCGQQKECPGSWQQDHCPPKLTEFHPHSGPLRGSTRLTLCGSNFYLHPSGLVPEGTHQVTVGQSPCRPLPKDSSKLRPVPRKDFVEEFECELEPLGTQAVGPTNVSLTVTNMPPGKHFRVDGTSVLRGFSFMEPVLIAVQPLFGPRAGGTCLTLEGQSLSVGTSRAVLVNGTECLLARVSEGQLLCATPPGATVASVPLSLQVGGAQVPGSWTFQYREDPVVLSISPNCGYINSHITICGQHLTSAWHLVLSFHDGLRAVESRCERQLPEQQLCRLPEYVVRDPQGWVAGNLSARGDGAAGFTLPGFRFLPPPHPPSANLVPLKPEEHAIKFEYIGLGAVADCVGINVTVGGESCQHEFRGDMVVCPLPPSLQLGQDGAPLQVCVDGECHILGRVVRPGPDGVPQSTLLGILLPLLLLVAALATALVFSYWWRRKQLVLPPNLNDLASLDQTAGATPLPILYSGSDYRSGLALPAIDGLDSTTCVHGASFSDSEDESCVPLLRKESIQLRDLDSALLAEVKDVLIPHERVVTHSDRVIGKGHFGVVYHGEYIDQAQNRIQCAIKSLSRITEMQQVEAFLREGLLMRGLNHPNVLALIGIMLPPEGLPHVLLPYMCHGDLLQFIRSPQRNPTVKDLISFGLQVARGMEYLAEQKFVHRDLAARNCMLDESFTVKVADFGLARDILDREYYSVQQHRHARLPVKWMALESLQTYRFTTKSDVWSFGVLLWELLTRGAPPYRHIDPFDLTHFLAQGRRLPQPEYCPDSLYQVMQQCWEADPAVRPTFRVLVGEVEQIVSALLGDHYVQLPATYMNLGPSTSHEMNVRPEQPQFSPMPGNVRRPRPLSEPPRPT

Consider `C[C@@H](Oc1c(N)ncc2c(-c3ccccc3)coc12)c1c(Cl)ccc(F)c1Cl` [Example 3, 7-[(R)-1-(2,6-dichloro-3-fluorophenyl)-ethoxy]-3-phenyl-furo[3,2-c]pyridin-6-ylamine], for which the half-maximal inhibitory concentration (IC50) lay in the range of 500 to 5000 nM.
In the case of `C[C@@H](Oc1c(N)ncc2c(-c3cn[nH]c3)coc12)c1c(Cl)ccc(F)c1Cl` [Example 6, 7-[(R)-1-(2,6-Dichloro-3-fluorophenyl)ethoxy]-3-(1H-pyrazol-4-yl)-furo[3,2-c]pyridin-6-ylamine], the IC50 lay in the range of 500 to 5000 nM.
As for `C[C@@H](Oc1c(N)ncc2c(C3=CCNCC3)coc12)c1c(Cl)ccc(F)c1Cl` [Example 8, 7-[(R)-1-(2,6-Dichloro-3-fluorophenyl)ethoxy]-3-(1,2,3,6-tetrahydropyridin-4-yl)-furo[3,2-c]pyridin-6-ylamine], the half-maximal inhibitory concentration (IC50) lay within 500 to 5000 nM.
Take `CC(=O)N1CC=C(c2coc3c(O[C@H](C)c4c(Cl)ccc(F)c4Cl)c(N)ncc23)CC1` [Example 12, 1-(4-{6-Amino-7-[(R)-1-(2,6-dichloro-3-fluorophenyl)-ethoxy]-furo[3,2-c]pyridin-3-yl}-3,6-dihydro-2H-pyridin-1-yl)-ethanone]: the IC50 is 500 to 5000 nM.
The value for `C[C@@H](Oc1c(N)ncc2c(C3CCNCC3)coc12)c1c(Cl)ccc(F)c1Cl` [Example 25, 7-[(R)-1-(2,6-Dichloro-3-fluorophenyl)-ethoxy]-3-piperidin-4-yl-furo[3,2-c]pyridin-6-ylamine] was 500 to 5000 nM; that for `C[C@@H](Oc1c(N)ncc2c(C3=CCN(C(=O)N(C)C)CC3)coc12)c1c(Cl)ccc(F)c1Cl` [Example 26, 4-{6-Amino-7-[(R)-1-(2,6-dichloro-3-fluorophenyl)-ethoxy]-furo[3,2-c]pyridin-3-yl}-3,6-dihydro-2H-pyridine-1-carboxylic acid Dimethylamide] was 500 to 5000 nM.
`CNC(=O)N1CC=C(c2coc3c(O[C@H](C)c4c(Cl)ccc(F)c4Cl)c(N)ncc23)CC1` [Example 35, 4-{6-Amino-7-[(R)-1-(2,6-dichloro-3-fluorophenyl)-ethoxy]-furo[3,2-c]pyridin-3-yl}-3,6-dihydro-2H-pyridine-1-carboxylic acid methylamide]: the IC50 is 500 to 5000 nM.
For `COC(=O)N1CC=C(c2coc3c(O[C@H](C)c4c(Cl)ccc(F)c4Cl)c(N)ncc23)CC1` [Example 50, 4-{6-Amino-7-[(R)-1-(2,6-dichloro-3-fluorophenyl)-ethoxy]-furo[3,2-c]pyridin-3-yl}-3,6-dihydro-2H-pyridine-1-carboxylic acid methyl ester], the IC50 was in the range of 500 to 5000 nM.
With `C[C@@H](Oc1c(N)ncc2c(-c3cccnc3)coc12)c1c(Cl)ccc(F)c1Cl` [Example 126, 7-[(R)-(2,6-Dichloro-3-fluorophenyl)ethoxy]-3-pyridin-3-ylfuro[3,2-c]pyridin-6-ylamine], the IC50 was in the range of 500 to 5000 nM.
The value for `C[C@@H](Oc1c(N)ncc2c(-c3ccncc3)coc12)c1c(Cl)ccc(F)c1Cl` [Example 127, 7-[(R)-(2,6-Dichloro-3-fluorophenyl)ethoxy]-3-pyridin-4-ylfuro[3,2-c]pyridin-6-ylamine] was 500 to 5000 nM; that for `C[C@@H](Oc1c(N)ncc2c(-c3ccccn3)coc12)c1c(Cl)ccc(F)c1Cl` [Example 137, 7-[(R)-1-(2,6-Dichloro-3-fluorophenyl)-ethoxy]-3-pyridin-2-ylfuro[3,2-c]pyridin-6-ylamine] was 500 to 5000 nM.
For `C[C@@H](Oc1c(N)ncc2c(C3=CCN(S(N)(=O)=O)CC3)coc12)c1c(Cl)ccc(F)c1Cl` [Example 141, 4-{6-Amino-7-[(1R)-1-(2,6-dichloro-3-fluorophenyl)ethoxy]furo[3,2-c]pyridin-3-yl}-3,6-dihydropyridine-1(2H)-sulfonamide], the IC50 lay within 500 to 5000 nM.
In the case of `CC(Oc1c(N)ncc2c(-c3cnn(C4CCNCC4)c3)coc12)c1c(Cl)c(F)cc(F)c1Cl` (stereo not drawn) [Example 154, 7-[1-(2,6-Dichloro-3,5-difluorophenyl)ethoxy]-3-[1-(piperidin-4-yl)-1H-pyrazol-4-yl]furo[3,2-c]pyridin-6-amine], the IC50 is < 500 nM.
In the case of `CNC(=O)c1coc2c(O[C@H](C)c3c(Cl)ccc(F)c3Cl)c(N)ncc12` [Example 178, 6-Amino-7-[(R)-1-(2,6-dichloro-3-fluorophenyl)ethoxy]furo[3,2-c]pyridine-3-carboxylic acid methylamide], the IC50 lay within 500 to 5000 nM.
Regarding `CC(=O)N1CCC(n2cc(-c3coc4c(O[C@H](C)c5c(Cl)ccc(F)c5Cl)c(N)ncc34)cn2)CC1` [Example 276, 1-[4-(4-{6-Amino-7-[(1R)-1-(2,6-dichloro-3-fluorophenyl)ethoxy]furo[3,2-c]pyridin-3-yl}-1H-pyrazol-1-yl)piperidin-1-yl]ethanone], the IC50 was in the range of 500 to 5000 nM.
Turning to `CC(Oc1c(N)ncc2c(-c3cnn(C4CCNCC4)c3)coc12)c1cc(F)ccc1Cl` (stereo not drawn) [Example 336, 7-[1-(2-Chloro-5-fluorophenyl)ethoxy]-3-(1-piperidin-4-yl-1H-pyrazol-4-yl)-furo[3,2-c]pyridin-6-ylamine], the IC50 is 500 to 5000 nM.
The value for `Nc1ncc2c(-c3cnn(C4CCNCC4)c3)coc2c1OCc1c(Cl)ccc(F)c1Cl` [Example 339, 7-(2,6-Dichloro-3-fluorobenzyloxy)-3-(1-piperidin-4-yl-1H-pyrazol-4-yl)-furo[3,2-c]pyridin-6-ylamine] was 500 to 5000 nM.
As to `CC(Oc1c(N)ncc2c(-c3cnn(C4CCNCC4)c3)coc12)c1c(Cl)ccc(Cl)c1Cl` (stereo not drawn) [Example 349, 3-(1-Piperidin-4-yl-1H-pyrazol-4-yl)-7-[1-(2,3,6-trichlorophenyl)-ethoxy]furo[3,2-c]pyridin-6-ylamine], the IC50 is < 500 nM.
The value for `CCC(Oc1c(N)ncc2c(-c3cnn(C4CCNCC4)c3)coc12)c1c(Cl)ccc(F)c1Cl` (stereo not drawn) [Example 350] was < 500 nM; that for `CC(Oc1c(N)ncc2c(-c3cnn(C4CCNCC4)c3)coc12)c1cccc(F)c1Cl` (stereo not drawn) [Example 351, 7-[1-(2-Chloro-3-fluorophenyl)ethoxy]-3-(1-piperidin-4-yl-1H-pyrazol-4-yl)-furo[3,2-c]pyridin-6-ylamine] was 500 to 5000 nM.
The value for `C#CCC(Oc1c(N)ncc2c(-c3cnn(C4CCNCC4)c3)coc12)c1c(Cl)ccc(F)c1Cl` (stereo not drawn) [Example 353, 7-[1-(2,6-Dichloro-3-fluorophenyl)but-3-ynyloxy]-3-(1-piperidin-4-yl-1H-pyrazol-4-yl)furo[3,2-c]pyridin-6-ylamine] was 500 to 5000 nM; that for `CCCC(Oc1c(N)ncc2c(-c3cnn(C4CCNCC4)c3)coc12)c1c(Cl)ccc(F)c1Cl` (stereo not drawn) [Example 357, 7-[1-(2,6-Dichloro-3-fluorophenyl)butoxy]-3-(1-piperidin-4-yl-1H-pyrazol-4-yl)furo[3,2-c]pyridin-6-ylamine] was < 500 nM; that for `C=CCC(Oc1c(N)ncc2c(-c3cnn(C4CCNCC4)c3)coc12)c1c(Cl)ccc(F)c1Cl` (stereo not drawn) [Example 358, 7-[1-(2,6-Dichloro-3-fluorophenyl)but-3-enyloxy]-3-(1-piperidin-4-yl-1H-pyrazol-4-yl)furo[3,2-c]pyridin-6-ylamine] was < 500 nM.
As for `CC(Oc1c(N)ncc2c(-c3cnn(C4CCNCC4)c3)coc12)c1c(Cl)cc(Cl)cc1Cl` (stereo not drawn) [Example 364, 3-(1-Piperidin-4-yl-1H-pyrazol-4-yl)-7-[1-(2,4,6-trichlorophenyl)-ethoxy]furo[3,2-c]pyridin-6-ylamine], the figure is < 500 nM.
